{"source": "ChEMBL document CHEMBL1201862", "about": "“PubChem BioAssay data set” (2004)", "key": {"[1]": {"molecular_target": "T1, Kappa-type opioid receptor (Homo sapiens, UniProt P41145)", "T1 sequence (P41145 whole entry)": "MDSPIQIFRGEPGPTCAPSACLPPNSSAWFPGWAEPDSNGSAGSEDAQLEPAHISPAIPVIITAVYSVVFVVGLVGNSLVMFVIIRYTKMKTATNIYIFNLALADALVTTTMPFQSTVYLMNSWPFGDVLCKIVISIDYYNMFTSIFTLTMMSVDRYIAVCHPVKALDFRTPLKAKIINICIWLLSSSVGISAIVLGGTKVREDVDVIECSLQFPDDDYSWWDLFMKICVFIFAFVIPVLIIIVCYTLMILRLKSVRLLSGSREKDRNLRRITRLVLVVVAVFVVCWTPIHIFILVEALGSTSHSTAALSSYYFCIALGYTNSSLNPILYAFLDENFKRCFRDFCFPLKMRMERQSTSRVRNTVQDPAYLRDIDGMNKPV", "type": "functional"}, "[2]": {"experiment": "NIH-3T3 fibroblast cytotoxicity, dose response, cytotoxicity control, cell-based, fluorescence, Alamar Blue, secondary assay (AID 2327);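 also: NIH-3T3 mouse fibroblasts cultured with fluconazole at 8 µg/mL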", "type": "functional"}, "[3]": {"molecular_target": "T2, Delta-type opioid receptor (Homo sapiens, UniProt P41143)", "T2 sequence (P41143 whole entry)": "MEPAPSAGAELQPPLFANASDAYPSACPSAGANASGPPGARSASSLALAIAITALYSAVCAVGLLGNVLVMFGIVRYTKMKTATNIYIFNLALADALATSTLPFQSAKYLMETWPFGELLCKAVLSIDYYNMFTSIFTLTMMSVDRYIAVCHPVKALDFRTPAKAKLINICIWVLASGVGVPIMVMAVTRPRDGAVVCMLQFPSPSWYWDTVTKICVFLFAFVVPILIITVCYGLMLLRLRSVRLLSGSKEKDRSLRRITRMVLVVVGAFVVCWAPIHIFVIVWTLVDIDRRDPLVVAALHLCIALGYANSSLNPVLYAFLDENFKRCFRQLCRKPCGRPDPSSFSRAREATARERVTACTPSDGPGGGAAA", "experiment": "HTS Image-Based Screen for Agonists of the DOR Receptor. [Related pubchem assays (depositor defined):AID1777, AID1786, AID2133]", "type": "functional"}, "[4]": {"molecular_target": "T2, Delta-type opioid receptor", "experiment": "HTS Image-Based Screen for Antagonists of the DOR Receptor. [Related pubchem assays (depositor defined):AID1777, AID1785, AID1786, AID2133]", "type": "functional"}, "[5]": {"experiment": "cytotoxicity toward NIH3T3 fibroblasts, dose response, counter-screen, cell-based, ATP luminescence, mouse fibroblasts (AID 2010);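 also: cells exposed to compound for about 90 hours before reading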", "type": "functional"}, "[6]": {"experiment": "AlphaScreen signal interference compounds, dose response, artefact control for ARNT-TACC3 interaction inhibitor project, biochemical, luminescence, cherry-pick (AID 651705);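 also: AlphaScreen bead proximity signal that flags compounds interfering with the detection technology; potency reflects signal decrease which marks the compound as an assay artifact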", "type": "functional"}, "Mu-type opioid receptor": {"molecular_target": "Mu-type opioid receptor (Homo sapiens, UniProt P35372)", "sequence (P35372 whole entry)": "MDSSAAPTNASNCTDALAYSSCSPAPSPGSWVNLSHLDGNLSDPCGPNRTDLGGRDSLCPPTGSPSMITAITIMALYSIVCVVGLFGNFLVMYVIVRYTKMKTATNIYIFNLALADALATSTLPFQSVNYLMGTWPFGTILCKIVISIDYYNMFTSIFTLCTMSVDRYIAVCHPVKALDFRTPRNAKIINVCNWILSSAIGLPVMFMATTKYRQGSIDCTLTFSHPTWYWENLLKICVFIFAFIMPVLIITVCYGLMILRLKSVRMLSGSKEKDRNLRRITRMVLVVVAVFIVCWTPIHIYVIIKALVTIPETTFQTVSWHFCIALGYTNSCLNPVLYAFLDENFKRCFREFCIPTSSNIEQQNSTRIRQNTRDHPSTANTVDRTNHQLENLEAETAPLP", "experiment": "HTS Image-Based Screen for Agonists of the MOR Receptor. [Related pubchem assays (depositor defined):AID1777, AID1785, AID1786, AID2133]", "type": "functional"}, "[7]": {"experiment": "C. albicans growth with fluconazole, confirmation, fluorescence, retest (AID 2467)", "type": "functional, cell-based"}, "[8]": {"molecular_target": "T1, Kappa-type opioid receptor", "type": "functional", "remark": "listed apart in the source"}, "[9]": {"experiment": "inhibitors of intracellular T. cruzi replication, confirmation, NIH3T3 host cells, beta-gal luminescence (AID 2044);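 also: luminescent beta-galactosidase reporter signal from transgenic T. cruzi replicating inside host cells; inhibitors lower the luminescence signal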", "type": "functional, cell-based"}, "Beta-galactosidase": {"molecular_target": "Beta-galactosidase (Escherichia coli, UniProt Q8VNN2)", "sequence (Q8VNN2 whole entry)": "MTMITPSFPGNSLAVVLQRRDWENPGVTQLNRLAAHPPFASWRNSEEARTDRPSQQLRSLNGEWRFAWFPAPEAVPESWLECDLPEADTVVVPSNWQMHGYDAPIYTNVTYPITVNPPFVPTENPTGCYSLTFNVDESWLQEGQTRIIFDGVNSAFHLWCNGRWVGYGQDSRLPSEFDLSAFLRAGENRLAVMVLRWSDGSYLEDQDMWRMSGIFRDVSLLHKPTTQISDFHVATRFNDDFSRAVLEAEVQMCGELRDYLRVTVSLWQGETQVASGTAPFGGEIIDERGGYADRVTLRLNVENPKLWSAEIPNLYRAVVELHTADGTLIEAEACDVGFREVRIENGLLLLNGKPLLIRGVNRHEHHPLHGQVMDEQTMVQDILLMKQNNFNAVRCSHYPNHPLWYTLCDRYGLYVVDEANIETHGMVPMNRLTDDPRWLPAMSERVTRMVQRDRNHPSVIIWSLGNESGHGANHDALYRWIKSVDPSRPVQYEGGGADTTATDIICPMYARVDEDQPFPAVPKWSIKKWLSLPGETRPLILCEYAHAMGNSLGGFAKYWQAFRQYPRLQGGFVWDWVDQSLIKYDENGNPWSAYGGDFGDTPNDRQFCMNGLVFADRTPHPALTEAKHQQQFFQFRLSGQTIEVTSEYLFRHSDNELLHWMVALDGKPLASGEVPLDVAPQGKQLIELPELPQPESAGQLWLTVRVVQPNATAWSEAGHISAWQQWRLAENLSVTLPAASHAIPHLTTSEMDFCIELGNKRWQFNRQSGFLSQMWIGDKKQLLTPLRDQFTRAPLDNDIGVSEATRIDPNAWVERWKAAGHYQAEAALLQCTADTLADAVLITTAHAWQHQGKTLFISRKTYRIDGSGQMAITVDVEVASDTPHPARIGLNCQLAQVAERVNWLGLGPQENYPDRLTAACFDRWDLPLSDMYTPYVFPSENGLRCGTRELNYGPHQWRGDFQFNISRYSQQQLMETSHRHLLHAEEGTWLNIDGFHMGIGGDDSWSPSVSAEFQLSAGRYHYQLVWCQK", "type": "functional"}, "HEK293 [10]": {"tested_on": "HEK293", "experiment": "NOD1 signaling inhibitors, primary screen, cell-based, luminescence, uHTS (AID 1578)", "type": "functional", "details": "Homo sapiens"}, "[11]": {"molecular_target": "T3, Nucleotide-binding oligomerization domain-containing protein 1 (Homo sapiens, UniProt Q9Y239)", "T3 sequence (Q9Y239 whole entry)": "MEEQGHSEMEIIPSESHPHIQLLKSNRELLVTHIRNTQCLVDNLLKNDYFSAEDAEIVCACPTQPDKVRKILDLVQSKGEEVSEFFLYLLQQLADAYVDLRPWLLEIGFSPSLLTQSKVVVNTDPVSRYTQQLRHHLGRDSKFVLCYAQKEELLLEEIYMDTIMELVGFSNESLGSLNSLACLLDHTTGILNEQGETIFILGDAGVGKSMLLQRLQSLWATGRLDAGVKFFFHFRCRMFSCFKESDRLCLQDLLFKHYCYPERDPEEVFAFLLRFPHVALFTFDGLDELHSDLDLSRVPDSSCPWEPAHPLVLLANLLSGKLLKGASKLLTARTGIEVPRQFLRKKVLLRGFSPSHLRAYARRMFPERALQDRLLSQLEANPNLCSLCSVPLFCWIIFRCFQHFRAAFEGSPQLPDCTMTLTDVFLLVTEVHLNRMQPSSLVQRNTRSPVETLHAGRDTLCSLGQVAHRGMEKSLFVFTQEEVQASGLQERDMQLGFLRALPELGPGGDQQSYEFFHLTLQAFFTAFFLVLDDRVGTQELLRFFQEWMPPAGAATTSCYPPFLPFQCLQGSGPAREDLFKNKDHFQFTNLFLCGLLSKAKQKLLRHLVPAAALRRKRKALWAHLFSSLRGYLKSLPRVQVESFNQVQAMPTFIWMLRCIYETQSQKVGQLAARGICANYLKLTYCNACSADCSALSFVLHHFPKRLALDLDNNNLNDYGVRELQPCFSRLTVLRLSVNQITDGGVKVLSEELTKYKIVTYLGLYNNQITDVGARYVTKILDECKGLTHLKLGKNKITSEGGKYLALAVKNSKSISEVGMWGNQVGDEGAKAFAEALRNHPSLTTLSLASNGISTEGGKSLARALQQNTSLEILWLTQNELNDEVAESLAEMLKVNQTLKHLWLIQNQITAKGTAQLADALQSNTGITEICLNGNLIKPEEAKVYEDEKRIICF", "experiment": "NOD1 signaling inhibitors, SAR follow-up, revised (AID 2333)", "type": "functional"}, "HEK293 [12]": {"tested_on": "HEK293", "experiment": "NOD2 signaling inhibitors in MDP-stimulated cells, cell-based, uHTS, luminescence (AID 2001)", "type": "functional", "details": "Homo sapiens"}, "HEK293 [13]": {"tested_on": "HEK293", "experiment": "cells", "details": "Homo sapiens"}, "HEK293 [14]": {"tested_on": "HEK293", "experiment": "cells", "type": "functional, cell-based", "details": "Homo sapiens"}, "HEK293 [15]": {"tested_on": "HEK293", "experiment": "cells", "type": "functional, cell-based", "details": "Homo sapiens", "remark": "listed apart in the source"}, "Tumor necrosis factor": {"molecular_target": "Tumor necrosis factor (Homo sapiens, UniProt P01375)", "sequence (P01375 whole entry)": "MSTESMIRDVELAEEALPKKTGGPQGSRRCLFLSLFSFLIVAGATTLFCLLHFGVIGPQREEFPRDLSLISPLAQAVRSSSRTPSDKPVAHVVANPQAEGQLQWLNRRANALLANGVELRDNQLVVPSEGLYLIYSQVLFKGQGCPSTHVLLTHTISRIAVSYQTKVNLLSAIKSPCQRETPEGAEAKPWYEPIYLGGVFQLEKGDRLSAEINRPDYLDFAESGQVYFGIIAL", "experiment": "TNFa-triggered NF-kB activation inhibitors, SAR follow-up, cell-based, revised (AID 2337)", "type": "functional"}, "SUMO-activating enzyme": {"molecular_target": "SUMO-activating enzyme (Homo sapiens, UniProt Q9UBT2)", "sequence (Q9UBE0 whole entry)": "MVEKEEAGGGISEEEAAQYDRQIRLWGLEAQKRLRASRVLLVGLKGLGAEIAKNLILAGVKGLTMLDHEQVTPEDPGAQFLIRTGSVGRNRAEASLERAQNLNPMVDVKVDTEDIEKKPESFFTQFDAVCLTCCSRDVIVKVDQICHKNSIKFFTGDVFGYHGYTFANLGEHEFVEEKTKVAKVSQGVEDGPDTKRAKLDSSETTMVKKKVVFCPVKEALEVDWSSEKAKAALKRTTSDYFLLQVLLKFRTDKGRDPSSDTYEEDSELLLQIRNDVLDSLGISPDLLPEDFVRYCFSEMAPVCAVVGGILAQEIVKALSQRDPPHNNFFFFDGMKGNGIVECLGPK", "sequence (Q9UBT2 whole entry)": "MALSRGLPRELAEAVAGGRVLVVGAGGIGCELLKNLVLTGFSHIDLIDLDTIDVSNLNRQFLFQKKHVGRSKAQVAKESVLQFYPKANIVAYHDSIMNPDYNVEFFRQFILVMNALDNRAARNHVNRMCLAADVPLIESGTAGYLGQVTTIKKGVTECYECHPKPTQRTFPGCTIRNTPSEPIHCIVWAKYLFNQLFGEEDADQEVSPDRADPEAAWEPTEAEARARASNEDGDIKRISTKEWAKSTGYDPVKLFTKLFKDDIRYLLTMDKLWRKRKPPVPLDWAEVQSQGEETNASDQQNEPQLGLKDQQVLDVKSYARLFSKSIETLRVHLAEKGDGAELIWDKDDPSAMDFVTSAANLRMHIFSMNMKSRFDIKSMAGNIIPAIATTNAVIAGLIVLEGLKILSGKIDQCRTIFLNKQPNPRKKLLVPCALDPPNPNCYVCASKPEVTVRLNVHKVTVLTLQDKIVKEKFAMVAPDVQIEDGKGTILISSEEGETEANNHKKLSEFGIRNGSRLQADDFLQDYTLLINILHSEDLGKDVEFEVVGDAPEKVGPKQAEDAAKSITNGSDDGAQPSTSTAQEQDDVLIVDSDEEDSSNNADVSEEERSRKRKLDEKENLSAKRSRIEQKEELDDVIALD", "experiment": "SUMOylation inhibitor hit validation, confirmation, SUMOylation inhibitor project, biochemical, AlphaScreen (AID 2018)", "type": "functional"}, "[16]": {"experiment": "THP-1 cell cytotoxicity, dose response, cytotoxicity control for Vif-APOBEC3G degradation inhibitor project, THP-1 cells (AID 1117359)", "type": "functional", "details": "Human immunodeficiency virus 1, THP-1"}}, "note": "The source made the active and inactive calls.", "data": [{"compound": "O=S(=O)(Nc1cccc2cccnc12)c1ccc(S(=O)(=O)N2CCCC2)cc1", "values": [{"measurement": "IC50", "setting": "[1]", "result": "8.52 µM (active)"}, {"measurement": "EC50", "setting": "[2]", "result": "17.2 µM (active)"}, {"measurement": "EC50", "setting": "[3]", "result": "> 32 µM (inactive)"}, {"measurement": "IC50", "setting": "[4]", "result": "> 32 µM (inactive)"}, {"measurement": "EC50", "setting": "[5]", "result": "5.05 µM (active)"}, {"measurement": "AC50", "setting": "[6]", "result": "110 µM (active)"}, {"measurement": "EC50", "setting": "Mu-type opioid receptor", "result": "> 32 µM (inactive)"}, {"measurement": "EC50", "setting": "[7]", "result": "4.29 µM (active)"}, {"measurement": "IC50", "setting": "[8]", "result": "> 32", "unit": "µM"}, {"measurement": "EC50", "setting": "[9]", "result": "2.33 µM (active)"}, {"measurement": "EC50", "setting": "Beta-galactosidase", "result": "> 31.5 µM (inactive)"}]}, {"compound": "c1ccc(-c2csc3ncnc(NCc4ccccn4)c23)cc1", "values": [{"measurement": "EC50", "setting": "HEK293 [10]", "result": "3.17 µM (active)"}, {"measurement": "IC50", "setting": "[11]", "result": "3.2 µM (active)"}, {"measurement": "IC50", "setting": "HEK293 [12]", "result": "7.16 µM (active)"}, {"measurement": "IC50", "setting": "HEK293 [13]", "result": "11.5 µM (active)"}, {"measurement": "IC50", "setting": "HEK293 [14]", "result": "6.34 µM (active)"}, {"measurement": "IC50", "setting": "HEK293 [15]", "result": "16.3 µM (active)"}, {"measurement": "IC50", "setting": "Tumor necrosis factor", "result": "4.23 µM (active)"}]}, {"compound": "COc1ccc(/C=C/c2nnc(NC(=O)CSc3ccc(C)cc3)s2)cc1", "values": [{"measurement": "IC50", "setting": "SUMO-activating enzyme", "result": "> 100 µM (inactive)"}, {"measurement": "CC50", "setting": "[16]", "result": "> 40 µM (active)"}]}]}
